Source: patent EP0821954A1, “Method for treating mental retardation” (ELI LILLY AND COMPANY, priority 1996, dated 1998)

Assays:
[1] = biological target: T1, 5HT2C (Homo sapiens, UniProt P28335); assay: 5HT2C receptor affinity; assay type: binding; conditions: 5HT2C receptor subtype
T1 sequence (P28335 33-458): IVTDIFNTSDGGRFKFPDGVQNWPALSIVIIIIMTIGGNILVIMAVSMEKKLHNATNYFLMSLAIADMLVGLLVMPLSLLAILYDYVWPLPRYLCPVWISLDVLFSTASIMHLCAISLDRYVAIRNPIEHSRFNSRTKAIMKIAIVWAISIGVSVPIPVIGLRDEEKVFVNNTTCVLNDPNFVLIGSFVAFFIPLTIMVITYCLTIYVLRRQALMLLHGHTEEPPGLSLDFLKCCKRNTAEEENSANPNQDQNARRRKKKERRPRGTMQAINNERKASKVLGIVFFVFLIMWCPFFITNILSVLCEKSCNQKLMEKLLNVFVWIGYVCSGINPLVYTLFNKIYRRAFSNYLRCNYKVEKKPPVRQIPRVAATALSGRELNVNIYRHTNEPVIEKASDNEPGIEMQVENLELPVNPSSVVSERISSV

[2] = biological target: m4 receptors (Homo sapiens, UniProt P08173); assay type: cell-based; conditions: CHO m4 cells treated with pertussis toxin
Chain of m4 receptors (P08173 whole entry): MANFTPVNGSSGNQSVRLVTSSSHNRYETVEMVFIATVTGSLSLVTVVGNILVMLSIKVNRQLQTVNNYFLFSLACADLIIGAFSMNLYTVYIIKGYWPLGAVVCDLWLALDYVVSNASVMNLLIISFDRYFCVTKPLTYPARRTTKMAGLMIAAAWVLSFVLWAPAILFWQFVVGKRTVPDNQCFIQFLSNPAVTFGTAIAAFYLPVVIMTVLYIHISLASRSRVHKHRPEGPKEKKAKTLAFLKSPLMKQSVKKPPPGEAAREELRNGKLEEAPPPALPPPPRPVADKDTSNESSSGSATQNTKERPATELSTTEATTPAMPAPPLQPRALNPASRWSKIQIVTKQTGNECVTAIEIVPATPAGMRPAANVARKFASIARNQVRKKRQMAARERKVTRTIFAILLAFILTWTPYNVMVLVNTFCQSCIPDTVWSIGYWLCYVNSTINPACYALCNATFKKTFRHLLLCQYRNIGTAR

[3] = biological target: muscarinic cholinergic receptors; assay: 3H-oxotremorine-M binding study; conditions: inhibition of binding of 3H-oxotremorine-M; read-out: inhibition costant (Ki)

CCCCCCOc1nsnc1C1=CCCN(C)C1 [Xanomeline, 3-(4-hexyloxy-1,2,5-thiadiazol-3-yl)-1,2,5,6-tetrahydro-1-methylpyridine]
Ki [1]: 120 nM
formation of cAMP [2]: efficaciously and potently stimulated the formation of cAMP
Ki [3]: 2 nM
